The source of these data is ChEMBL document CHEMBL5143695, “Benzobis(imidazole) derivatives as STAT3 signal inhibitors with antitumor activity” (Bioorg Med Chem, 2022).

In assay [1] the test system is HepG2. The assay is described as follows: Induction of apoptosis in human HepG2 cells assessed as viable cells at 5 uM incubated for 48 hrs by Annexin V/PI staining based flow cytometry method (reference value: 92.5%). Format: functional. To be noted: read-out: Activity.
The nature of assay [2]: Inhibition of IL-6/JAK/STAT3 signalling pathway in HEK-blue IL-6 cells incubated for 16 hrs by SEAP reporter gene based QUANTI- blue assay. Conditions: Homo sapiens, HEK-Blue IL-6, 16 h. It counts as cell-based.
The target of assay [3] is Signal transducer and activator of transcription 3 (Homo sapiens) (UniProt P40763). The assay is described as follows: Binding affinity to STAT3 (unknown origin) expressed in Escherichia coli BL21 (DE3) assessed as thermal stability by measuring STAT3 accumulation at 55 to 80 degree C at 100 uM incubated for 30 mins by thermal shift assay.
Assay [4] shares this target. The assay can be described thus: Inhibition of STAT3 dimerization in human HepG2 cells assessed as decrease in STAT3 dimer formation at 5 to 10 uM incubated for 24 hrs by SDS-PAGE based DSS crosslink assay. Format: cell-based. Conditions: dose 5-10 µM.
The target is the same in assay [5]. The assay is described as follows: Inhibition of STAT3 dimerization in human HepG2 cells assessed as increase in STAT3 monomer expression at 5 to 10 uM incubated for 24 hrs by DSS crosslink assay. Format: cell-based. Conditions: dose 5-10 µM.
Assay [6] shares this target. The assay is described as follows: Inhibition of IL-6 induced STAT3 phosphorylation at Tyr705 residue in human EC109 cells preincubated for 16 hrs followed by IL-6 stimulation for 30 mins by Western blot analysis. Format: cell-based. To be noted: dose 2.5-20 µM, DDE = dose-dependent effect. On the technique in general: In western blotting, separated proteins are transferred to a membrane and probed.

Assay [7] deals with HepG2. The assay can be described thus: Induction of apoptosis in human HepG2 cells assessed as early apoptotic cells at 5 uM incubated for 48 hrs by Annexin V/PI staining based flow cytometry method (reference value: 3.31%). Format: functional. (In general: Flow cytometry measures light scatter and fluorescence of single cells or particles in a stream.)
The test system of assay [8] is HepG2. The assay is described as follows: Induction of apoptosis in human HepG2 cells assessed as early apoptotic cells at 10 uM incubated for 48 hrs by Annexin V/PI staining based flow cytometry method (reference value: 3.31%). Format: functional.
The subject of assay [9] is HepG2. The assay is described as follows: Induction of apoptosis in human HepG2 cells assessed as necrotic cells at 10 uM incubated for 48 hrs by Annexin V/PI staining based flow cytometry method (reference value: 0.57%). It counts as functional.
Assay [10] relates to ECa-109 cell line. The assay can be described thus: Induction of apoptosis in human EC109 cells assessed as early apoptotic cells at 5 uM incubated for 48 hrs by Annexin V/PI staining based flow cytometry method (reference value: 1.36%). It counts as functional.
Assay [11] concerns ECa-109 cell line. The assay is described as follows: Induction of apoptosis in human EC109 cells assessed as viable cells at 20 uM incubated for 48 hrs by Annexin V/PI staining based flow cytometry method (reference value: 91.7%). It counts as functional. To be noted: read-out: Activity.
The test system of assay [12] is ECa-109 cell line. The assay can be described thus: Induction of apoptosis in human EC109 cells assessed as necrotic cells at 20 uM incubated for 48 hrs by Annexin V/PI staining based flow cytometry method (reference value: 0.73%). It counts as functional.
Assay [13] deals with ECa-109 cell line. The assay is described as follows: Induction of cell cycle arrest in human EC109 cells assessed as accumulation of cells at G0/G1 phase incubated for 24 hrs by flow cytometric analysis (reference value: 49.86%). It counts as functional.
The test system of assay [14] is HepG2. The assay is described as follows: Antitumor activity against human HepG2 cells xenografted in BALB/c athymic nude mouse assessed as tumor growth inhibition at 40 mg/kg, ip administered daily for 24 days relative to control. Format: functional. Conditions: HepG2, 576 h, time 24 day, read-out: TGI. On the technique in general: Xenograft models place foreign cells or tissue in a host animal.

The test system of assay [15] is HepG2. The assay can be described thus: Antitumor activity against human HepG2 cells xenografted in BALB/c athymic nude mouse assessed as decrease in Ki67 expression level at 20 to 40 mg/kg, ip administered daily for 24 days. Format: functional, organism-based. To be noted: dose 20-40 mg/kg, time 24.0 day.
The subject of assay [16] is HepG2. The assay is described as follows: Antitumor activity against human HepG2 cells xenografted in BALB/c athymic nude mouse assessed as decrease in STAT3 phosphorylation at Y705 residues at 20 to 40 mg/kg, ip administered daily for 24 days. It counts as functional, organism-based. To be noted: dose 20-40 mg/kg, time 24.0 day.

pIC50: −log10 of the molar value. The source made the active and inactive calls. No cut-off for these calls is given here.

Chain of Signal transducer and activator of transcription 3 (Homo sapiens) (P40763 whole entry): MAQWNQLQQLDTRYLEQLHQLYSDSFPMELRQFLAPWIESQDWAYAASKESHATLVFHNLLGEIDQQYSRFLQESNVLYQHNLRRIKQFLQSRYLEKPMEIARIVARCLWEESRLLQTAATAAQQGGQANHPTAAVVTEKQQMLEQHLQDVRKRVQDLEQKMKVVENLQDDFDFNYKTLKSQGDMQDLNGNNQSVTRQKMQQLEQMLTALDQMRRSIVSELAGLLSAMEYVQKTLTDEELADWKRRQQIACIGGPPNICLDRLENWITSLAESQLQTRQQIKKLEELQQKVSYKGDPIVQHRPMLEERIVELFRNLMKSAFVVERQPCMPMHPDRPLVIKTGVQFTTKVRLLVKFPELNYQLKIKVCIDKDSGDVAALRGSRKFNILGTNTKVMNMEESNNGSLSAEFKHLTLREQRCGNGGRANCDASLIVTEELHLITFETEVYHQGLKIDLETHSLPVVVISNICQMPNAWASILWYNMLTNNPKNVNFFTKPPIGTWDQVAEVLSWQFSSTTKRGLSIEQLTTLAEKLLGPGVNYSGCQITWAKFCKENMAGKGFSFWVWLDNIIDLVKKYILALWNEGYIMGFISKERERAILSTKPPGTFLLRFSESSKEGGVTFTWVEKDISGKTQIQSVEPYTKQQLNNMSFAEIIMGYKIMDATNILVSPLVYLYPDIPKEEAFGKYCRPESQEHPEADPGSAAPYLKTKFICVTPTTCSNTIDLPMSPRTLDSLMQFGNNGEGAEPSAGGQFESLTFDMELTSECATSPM

In the case of `CCCn1c(-c2cccc(OC)c2)nc2cc3nc(-c4cccc(OC)c4)n(CCC)c3cc21`, the viability at 5 µM in the assay with HepG2 [1] is 76.6%. Also, in [2], the negative-log IC50 (pIC50) (commonly the negative decadic logarithm of the IC50, by convention in mol/L) was 5.58. The result (in assay [3]; in the assay with HepG2 [15]; in the assay on HepG2 [16]) was Active. The inhibition entry in assay [4] and in assay [5] was “Active” throughout. The inhibition entry in assay [6] was “Dde”. Also, the Activity in the assay with HepG2 [7] was determined as 8.44%; with HepG2 [8] it was 19.7%; in the assay with HepG2 [9], 1.49%; with ECa-109 cell line [10], 2.27%; with ECa-109 cell line [12], 3.56%; in the assay with ECa-109 cell line [13] it was 58.73%. Also, the viability at 20 µM with ECa-109 cell line [11] is 46.8%. In addition, in the assay with HepG2 [14], the inhibition in vivo at 40 mg/kg amounted to 47.3%.
